# Legend:
# [1] = molecular target: T1, recombinant human full-length DYRK1A protein (Homo sapiens, UniProt Q13627); test: DYRK1A Kinase Assay (microfluidics detection); type: biochemical; details: enzyme 0.01 nM, ATP 20 μM, DYRKtide peptide 1 μM, 3 h
# T1 construct: recombinant human full-length DYRK1A protein; GST; host or cells: insect cells
# Protocol: The DYRK1A kinase assay was performed using recombinant human full-length DYRK1A protein (GST-tagged, expressed in insect cells), in a 12-concentration IC50 format with singlicate wells (12 pt IC50), using microfluidics detection technology. Kinase reactions were assembled in 384 well plates (Greiner) in a total volume of 20 uL as follows: kinase protein was pre-diluted in assay buffer comprising: 100 mM HEPES, pH 7.5, 0.1% BSA, 0.01% Triton X-100, 1mM DTT, 5mM MgCl2 and dispensed into 384 well plate (10 μL per well). All compounds and reference standards were serially pre-diluted in DMSO and added to the protein samples by acoustic dispensing (Labcyte Echo). DMSO concentration was equalized to 1% in all samples. Control samples (0%-inhibition in the absence of inhibitor, DMSO only) and 100%-inhibition (in the absence of enzyme) are assembled in replicates of four and used to calculate the %-inhibition in the presence of compounds. Reactions were initiated by addition of […] of FAM-labeled DYRKtide peptide substrate and ATP prepared in the same assay buffer. Final concentrations of enzyme, ATP and substrate peptide were 0.01 nM, 20 μM and 1 μM, respectively. The kinase reactions are allowed to proceed for 3 h at room temperature. Following incubation, the reactions were quenched by addition of 50 μL of termination buffer (100 mM HEPES, pH7.5, 0.01% Triton X-100, 50 mM EDTA). Terminated plates are analyzed on a microfluidic electrophoresis instrument (Caliper LabChip® 3000, Caliper Life Sciences/Perkin Elmer), enabling electrophoretic separation and detection of product and substrate. A change in the relative intensity of the peptide substrate and phosphorylated product was the parameter measured. Activity in each test sample was determined as the product to sum ratio (PSR): P/(S+P), where P is the peak height of the product, and S is the peak height of the substrate. Percent inhibition (Pinh) was determined using the following equation: Pinh=(PSR0% inh—PSR compound)/(PSR0% inh—PSR100% inh)*100, in which: PSR compound is the product/sum ratio in the presence of compound, PSR0% inh is the product/sum ratio in the absence of compound and the PSR100% inh is the product/sum ratio in the absence of the enzyme. The compound IC50 (50%-inhibition) was determined by the %-inh data (Pinh versus compound concentration) fitted by a 4-parameter sigmoid dose-response model using XLfit software (IDBS).
# ASK1 = molecular target: T2, ASK1 (Homo sapiens, UniProt Q99683); test: ASK1 Kinase Assay (Promega ASK1 Kinase Enzyme System, ADP-Glo); type: biochemical; details: enzyme 50 nM, Myelin basic protein 1 μg/ml, ATP 10 μM
# T2 construct: purchased Promega V3881
# T2 sequence (Q99683 649-946 limits assumed): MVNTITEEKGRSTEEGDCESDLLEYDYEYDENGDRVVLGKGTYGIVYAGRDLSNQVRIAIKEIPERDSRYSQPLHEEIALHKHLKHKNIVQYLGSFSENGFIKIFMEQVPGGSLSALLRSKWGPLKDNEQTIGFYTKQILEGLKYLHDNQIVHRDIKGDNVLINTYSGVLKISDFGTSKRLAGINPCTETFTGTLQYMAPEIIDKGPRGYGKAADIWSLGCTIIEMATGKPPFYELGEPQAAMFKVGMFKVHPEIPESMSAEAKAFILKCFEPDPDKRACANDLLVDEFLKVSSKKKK
# Protocol: ASK1 Kinase Assay. The ASK1 enzymatic assay was run following Promega ASK1 Kinase Enzyme System (Cat #V3881). The kit provides the protocol, enzymes and all reagents necessary to run an assay.
# Firstly, the compounds, enzyme, substrate and ATP were diluted in provided assay buffer. The final concentration of the enzyme was 50 nM, substrate (Myelin basic protein) 1μg/ml and ATP 10 μM. The compound and the enzyme were pre-incubated in a 384 well white solid bottom plate (Greiner, Cat #784075) for 10 minutes. After incubation, the substrate and ATP were added and incubated for further 60 minutes. After 60 minutes, ADP-gloTM was added and plate was incubated for another 40 minutes. After 40 minutes, Kinase Detection Reagent was added and the plate was incubated for 45 minutes. After 45 minutes, plate was read on Perkin Elmer EnVision using luminescence read (0.5 seconds/well).
IC50 [1],IC50 (ASK1),Compound
1 to 10 µM,0.2 to 1 µM,"Cc1csc2c1CN(c1cccc(-c3nncn3C3CC3)n1)C2=O [Compound 99, 5-(6-(4-cyclopropyl-4H-1,2,4-triazol-3-yl)pyridin-2-yl)-3-methyl-4,5-dihydro-6H-thieno[2,3-c]pyrrol-6-one]"
< 0.2 µM,0.2 to 1 µM,"O=C1c2sc(C3CCOCC3)cc2CN1c1cccc(-c2nncn2C2CC2)n1 [Compound 93, 5-(6-(4-cyclopropyl-4H-1,2,4-triazol-3-yl)pyridin-2-yl)-2-(tetrahydro-2H-pyran-4-yl)-4,5-dihydro-6H-thieno[2,3-c]pyrrol-6-one]"
0.2 to 1 µM,0.2 to 1 µM,"CC(=O)c1ccccc1-c1cc2c(s1)C(=O)N(c1cccc(-c3nncn3C3CC3)n1)C2 [Compound 91, 2-(2-Acetylphenyl)-5-(6-(4-cyclopropyl-4H-1,2,4-triazol-3-yl)pyridin-2-yl)-4,5-dihydro-6H-thieno[2,3-c]pyrrol-6-one]"
0.2 to 1 µM,< 0.2 µM,"COc1cc2c(s1)C(=O)N(c1cccc(-c3nncn3C3CC3)n1)C2 [Compound 102, 5-(6-(4-cyclopropyl-4H-1,2,4-triazol-3-yl)pyridin-2-yl)-2-methoxy-4,5-dihydro-6H-thieno[2,3-c]pyrrol-6-one]"
< 0.2 µM,< 0.2 µM,"CC(C)n1cnnc1-c1cccc(N2Cc3ccsc3C2=O)n1 [Compound 103, 5-(6-(4-isopropyl-4H-1,2,4-triazol-3-yl)pyridin-2-yl)-4,5-dihydro-6H-thieno[2,3-c]pyrrol-6-one]"
0.2 to 1 µM,< 0.2 µM,"Cc1cc2c(s1)C(=O)N(c1cccc(-c3nncn3C3CC3)n1)C2 [Compound 96, 5-(6-(4-cyclopropyl-4H-1,2,4-triazol-3-yl)pyridin-2-yl)-2-methyl-4,5-dihydro-6H-thieno[2,3-c]pyrrol-6-one]"
1 to 10 µM,1 to 10 µM,"O=C1c2scc(C3CCOCC3)c2CN1c1cccc(-c2nncn2C2CC2)n1 [Compound 98, 5-(6-(4-cyclopropyl-4H-1,2,4-triazol-3-yl)pyridin-2-yl)-3-(tetrahydro-2H-pyran-4-yl)-4,5-dihydro-6H-thieno[2,3-c]pyrrol-6-one]"

# Further lines, the compound ahead of its results:
Compound,IC50 [1],IC50 (ASK1)
"CC(C)CNc1csc2c1CN(c1cccc(-c3nncn3C3CC3)n1)C2=O [Compound 101, 5-(6-(4-cyclopropyl-4H-1,2,4-triazol-3-yl)pyridin-2-yl)-3-(isobutylamino)-4,5-dihydro-6H-thieno[2,3-c] pyrrol-6-one]",1 to 10 µM,
"O=C1c2sccc2CN1c1cccc(-c2nncn2C2CC2)n1 [Compound 90, 5-(6-(4-Cyclopropyl-4H-1,2,4-triazol-3-yl)pyridin-2-yl)-4,5-dihydro-6H-thieno[2,3-c]pyrrol-6-one]",0.2 to 1 µM,< 0.2 µM
"N-(3-(5-(6-(4-Cyclopropyl-4H-1,2,4-triazol-3-yl)pyridin-2-yl)-6-oxo-5,6-dihydro-4H-thieno[2,3-c]pyrrol-2-yl)phenypacetamide [Compound 92]",< 0.2 µM,0.2 to 1 µM
"CCc1cc2c(s1)C(=O)N(c1cccc(-c3nncn3C3CC3)n1)C2 [Compound 97, 5-(6-(4-cyclopropyl-4H-1,2,4-triazol-3-yl)pyridin-2-yl)-2-ethyl-4,5-dihydro-6H-thieno[2,3-c]pyrrol-6-one]",< 0.2 µM,0.2 to 1 µM
"O=C1c2sc3ccccc3c2CN1c1cccc(-c2nncn2C2CC2)n1 [Compound 95, 2-(6-(4-cyclopropyl-4H-1,2,4-triazol-3-yl)pyridin-2-yl)-1,2-dihydro-3H-benzo[4,5]thieno[2,3-c]pyrrol-3-one]",1 to 10 µM,0.2 to 1 µM
"O=C1c2scc(Br)c2CN1c1cccc(-c2nncn2C2CC2)n1 [Compound 100, 3-bromo-5-(6-(4-cyclopropyl-4H-1,2,4-triazol-3-yl)pyridin-2-yl)-4,5-dihydro-6H-thieno[2,3-c]pyrrol-6-one]",1 to 10 µM,0.2 to 1 µM
"CN(C)c1cc2c(s1)C(=O)N(c1cccc(-c3nncn3C3CC3)n1)C2 [Compound 104, 5-(6-(4-cyclopropyl-4H-1,2,4-triazol-3-yl)pyridin-2-yl)-2-(dimethylamino)-4,5-dihydro-6H-thieno[2,3-c] pyrrol-6-one]",0.2 to 1 µM,0.2 to 1 µM
"O=C1c2scc(-c3ccccc3)c2CN1c1cccc(-c2nncn2C2CC2)n1 [Compound 94, 5-(6-(4-cyclopropyl-4H-1,2,4-triazol-3-yl)pyridin-2-yl)-3-phenyl-4,5-dihydro-6H-thieno[2,3-c]pyrrol-6-one]",1 to 10 µM,0.2 to 1 µM

# Reference: patent US20210213006A1, “METHODS OF TREATING NEURODEGENERATIVE DISEASES” (Seal Rock Therapeutics, Inc., priority 2018, published 2021)
